How the values were obtained:
[1] = cited from earlier work
[2] = Particle size distribution analysis of tolbutamide particles; type: physicochemical
Description: (§1) In the embodiments 1 to 4, the usage amount of the bulk drug of tolbutamide is in a range of 2 to 5 gram, and the other operation conditions, e.g. the pressures and the temperature of mixing, the temperatures before and after the expansion and the particle sizes of the tolbutamide micro-particles, are listed in Table 1 below.
as §1, with “embodiments 5” for “embodiments 1”, “to 8,” for “to 4,”, “Table 2” for “Table 1”
FIG. 1A is the schematic diagram showing the distribution and the cumulative distribution of the particle sizes for the bulk drug of tolbutamide, wherein the average particle size is 89.4 micron. FIG. 1B is the schematic diagram showing the distribution and the cumulative distribution of the particle sizes for the tolbutamide micro-particles obtained by using the method of the rapid expansion of supercritical solution (RESS) in the fourth embodiment. FIG. 1C is the schematic diagram showing the distribution and the cumulative distribution of the particle sizes for the tolbutamide micro-particles obtained by using the method of RESS with solid cosolvent (RESS-SC) in the eighth embodiment. […]

Row | average particle size ([2]; Table 1, RESS method, supercritical CO2, no cosolvent, bulk drug as comparison) [μm] | average particle size ([2]; text on FIGS. 1A-1D) [micron] | Compound | solubility in ethanol and chloroform ([1]; ethanol and chloroform) | solubility in water ([1]; water)
1 |  |  | CCCCNC(=O)NS(=O)(=O)c1ccc(C)cc1 [tolbutamide] | soluble in ethanol and chloroform | almost insoluble in the water
2 | 89.4 | 89.4 | CCCCNC(=O)NS(=O)(=O)c1ccc(C)cc1 [Bulk drug of tolbutamide, tolbutamide] |  | 
